Literature values in patent US10829501B2 (BRISTOL-MYERS SQUIBB COMPANY, priority 2016, dated 2020).
Where two headings read alike, the source gives them in different places.

How the values were obtained:
neointimal formation = settings: rats, balloon injury model; cited from earlier work
[1] = system: spontaneously hypertensive rat, renal hypertensive rat and deoxycortisone acetate salt hypertensive rat models; settings: cited from earlier work
[2] = system: congestive heart failure in Dahl salt-sensitive rats; settings: cited from earlier work

C[C@@H](N)[C@H]1CC[C@H](C(=O)Nc2ccncc2)CC1 [Example Y-27632]
neointimal formation (neointimal formation): inhibited neointimal formation | blood pressure ([1]; control rats): only a minor effect on blood pressure | blood pressure ([1]; three rat models of hypertension): significantly decrease blood pressure | ventricular hypertrophy, fibrosis and function [2]: improve ventricular hypertrophy, fibrosis and function
